{"source": "patent US12370187B2", "about": "“Composition containing antitumor drug, and preparation method thereof and use thereof” (KUNSHAN XINYUNDA BIOTECH CO., LTD., priority 2021, dated 2025)", "key": {"[1]": {"test_system": "human colon cancer cell line HCT116", "conditions": "for RTV / Tumor Weight: D 43", "description": "One week after the last dose, tumors were taken from all mice, weighed, and photographed."}, "[2]": {"test_system": "human colon cancer cell line SW620", "experiment": "In vivo pharmacodynamic study in SW620 model (Example 34)", "conditions": "60 mg/kg iv QW × 4"}, "[3]": {"test_system": "human colon cancer cell line SW620", "conditions": "for RTV (D 41) / T/C (%) RTV / T/C (%) TW / Tumor Weight (mg) (D 41): D 41"}, "human colon cancer HT-29": {"test_system": "human colon cancer HT-29", "experiment": "Anti-colon cancer activity, subcutaneously implanted HT-29 (Example 23)", "assay_type": "in vivo, BALB/c nude mice", "conditions": "Protocol I; 60 mg/kg iv"}, "[4]": {"test_system": "human ovarian cancer cell line SKOV-3", "conditions": "for RTV / Tumor Weight: D 42", "description": "SKOV-3 tumor masses were subcutaneously inoculated to 80 BALB/c nude mice."}, "[5]": {"test_system": "human triple-negative breast cancer MDA-MB-231", "experiment": "Anti-breast tumor activity, subcutaneously implanted MDA-MB-231 (Example 22)", "assay_type": "in vivo, BALB/c nude mice", "conditions": "Protocol I; 60 mg/kg iv"}, "[6]": {"test_system": "human triple-negative breast cancer cell line MDA-MB-231", "experiment": "In vivo pharmacodynamic study on MDA-MB-231 tumor (Example 24)", "conditions": "for Body weight increase compared with before administration: mouse, in vivo", "protocol": "One week after the last administration, tumors were taken from all the mice and weighed.\nThe clinical symptoms observed during the experiment were recorded in the raw data. Tumor volume was calculated by the following formula: […]\nRelative tumor proliferation rate (T/C (%)) represents a ratio in percentage of relative tumor volumes or tumor weights of a treatment group and a control group at a time point, which was calculated by the following formula: […]\nRelative tumor inhibition rate (TGI (%)) was calculated by the following formula: […]"}, "tumor cells": {"test_system": "tumor cells", "conditions": "Zhang et al. 2004; cited from earlier work"}, "[7]": {"conditions": "CPT-11 80 mg/kg iv QW × 4, 2 surviving animals"}}, "note": "Where a name gives a salt, the structure may show the parent alone. Read-outs that look alike come from different tables or passages of the source.", "data": [{"smiles": "CCc1c2c(nc3ccc(OC(=O)N4CCC(N5CCCCC5)CC4)cc13)-c1cc3c(c(=O)n1C2)COC(=O)[C@]3(O)CC", "note": "[CPT-11, irinotecan hydrochloride]", "values": [{"measurement": "Reduction in body weight at the end of the experiment compared to before administration", "setting": "[1]; CPT-11 60 mg/kg", "value": 14.41, "unit": "%"}, {"measurement": "T/C (%) RTV", "setting": "[1]; CPT-11 60 mg/kg iv QW × 4", "value": 35, "unit": "%"}, {"measurement": "T/C (%) TW", "setting": "[1]; CPT-11 60 mg/kg iv QW × 4", "value": 26, "unit": "%"}, {"measurement": "RTV", "setting": "[1]; CPT-11 60 mg/kg iv QW × 4", "value": "4.42 ± 1.05"}, {"measurement": "Tumor Weight", "setting": "[1]; CPT-11 60 mg/kg iv QW × 4", "value": "370 ± 87", "unit": "mg"}, {"measurement": "Reduction in body weight at the end of the experiment compared to before administration", "setting": "[1]; CPT-11 80 mg/kg", "value": 16.00, "unit": "%"}, {"measurement": "T/C (%) RTV", "setting": "[1]; CPT-11 80 mg/kg iv QW × 4", "value": 16, "unit": "%"}, {"measurement": "T/C (%) TW", "setting": "[1]; CPT-11 80 mg/kg iv QW × 4", "value": 12, "unit": "%"}, {"measurement": "RTV", "setting": "[1]; CPT-11 80 mg/kg iv QW × 4", "value": "1.95 ± 0.31"}, {"measurement": "Tumor Weight", "setting": "[1]; CPT-11 80 mg/kg iv QW × 4", "value": "173 ± 34", "unit": "mg"}, {"measurement": "T/C (%) TV", "setting": "[2]", "value": 8, "unit": "%"}, {"measurement": "T/C (%) TW", "setting": "[2]", "value": 7, "unit": "%"}, {"measurement": "TW (mg) (mean ± SEM)", "setting": "[2]", "value": "99 ± 43", "unit": "mg"}, {"measurement": "Body Weight (g, mean ± SEM) Day 11", "setting": "[2]; Day 11", "value": "18.5 ± 0.6", "unit": "g"}, {"measurement": "TV (mm^3) Day 11 (mean ± SEM)", "setting": "[2]; Day 11", "value": "157 ± 18", "unit": "mm^3"}, {"measurement": "Body Weight (g, mean ± SEM) Day 39", "setting": "[2]; Day 39", "value": "19.2 ± 0.7", "unit": "g"}, {"measurement": "TV (mm^3) Day 39 (mean ± SEM)", "setting": "[2]; Day 39", "value": "154 ± 57", "unit": "mm^3"}, {"measurement": "Body Weight Change (%)", "setting": "[2]; Day 39 vs Day 11", "value": "+3.8%"}, {"measurement": "RTV (D 41)", "setting": "[3]; 60 mg/kg", "value": "4.69 ± 1.12"}, {"measurement": "T/C (%) RTV", "setting": "[3]; 60 mg/kg", "value": 28, "unit": "%"}, {"measurement": "T/C (%) TW", "setting": "[3]; 60 mg/kg", "value": 27, "unit": "%"}, {"measurement": "Tumor Weight (mg) (D 41)", "setting": "[3]; 60 mg/kg", "value": "465 ± 91", "unit": "mg"}, {"measurement": "RTV (D 41)", "setting": "[3]; 80 mg/kg", "value": "5.95 ± 1.22"}, {"measurement": "T/C (%) RTV", "setting": "[3]; 80 mg/kg", "value": 36, "unit": "%"}, {"measurement": "T/C (%) TW", "setting": "[3]; 80 mg/kg", "value": 28, "unit": "%"}, {"measurement": "Tumor Weight (mg) (D 41)", "setting": "[3]; 80 mg/kg", "value": "495 ± 91", "unit": "mg"}, {"measurement": "Body weight reduction at the end of the experiment compared with before administration", "setting": "[3]; CPT-11 high dose (80 mg/kg)", "value": 5.810, "unit": "%"}, {"measurement": "Body weight reduction at the end of the experiment compared with before administration", "setting": "[3]; CPT-11 low dose (60 mg/kg)", "value": 0.99, "unit": "%"}, {"measurement": "Tumor Inhibition Rate", "setting": "human colon cancer HT-29", "value": 47, "unit": "%"}, {"measurement": "T/C (%) RTV", "setting": "[4]; CPT-11 60 mg/kg iv QW × 4", "value": 64, "unit": "%"}, {"measurement": "T/C (%) TW", "setting": "[4]; CPT-11 60 mg/kg iv QW × 4", "value": 67, "unit": "%"}, {"measurement": "RTV", "setting": "[4]; CPT-11 60 mg/kg iv QW × 4", "value": "9.20 ± 0.79"}, {"measurement": "Tumor Weight", "setting": "[4]; CPT-11 60 mg/kg iv QW × 4", "value": "1179 ± 150", "unit": "mg"}, {"measurement": "T/C (%) RTV", "setting": "[4]; CPT-11 80 mg/kg iv QW × 4", "value": 79, "unit": "%"}, {"measurement": "T/C (%) TW", "setting": "[4]; CPT-11 80 mg/kg iv QW × 4", "value": 95, "unit": "%"}, {"measurement": "RTV", "setting": "[4]; [7]", "value": "11.44 ± 0.21"}, {"measurement": "Tumor Weight", "setting": "[4]; [7]", "value": "1664 ± 258", "unit": "mg"}, {"measurement": "Animals died", "setting": "[4]; CPT-11 80 mg/kg, 8 animals", "value": 6}, {"measurement": "Body weight increase at the end of the experiment", "setting": "[4]; CPT-11 high dose (80 mg/kg), two living animals", "value": 11.94, "unit": "%"}, {"measurement": "Body weight increase at the end of the experiment", "setting": "[4]; CPT-11 low dose (60 mg/kg)", "value": 6.97, "unit": "%"}, {"measurement": "Tumor Inhibition Rate", "setting": "[5]", "value": 71, "unit": "%"}, {"measurement": "Animal death", "setting": "[6]; CPT-11 60 mg/kg", "value": "No animal died"}, {"measurement": "T/C (%) RTV", "setting": "[6]; CPT-11 60 mg/kg iv QW × 3", "value": 24, "unit": "%"}, {"measurement": "T/C (%) TW", "setting": "[6]; CPT-11 60 mg/kg iv QW × 3", "value": 28, "unit": "%"}, {"measurement": "RTV", "setting": "[6]; CPT-11 60 mg/kg iv QW × 3, D33", "value": "4.59 ± 1.04"}, {"measurement": "T/C (%) RTV", "setting": "[6]; CPT-11 80 mg/kg iv QW × 3", "value": 13, "unit": "%"}, {"measurement": "T/C (%) TW", "setting": "[6]; CPT-11 80 mg/kg iv QW × 3", "value": 16, "unit": "%"}, {"measurement": "RTV", "setting": "[6]; CPT-11 80 mg/kg iv QW × 3, D33", "value": "2.46 ± 0.41"}, {"measurement": "Tumor Weight", "setting": "[6]; CPT-11 80 mg/kg iv QW × 3, D33", "value": "391 ± 143", "unit": "mg"}, {"measurement": "Animal death", "setting": "[6]; CPT-11 80 mg/kg, 7 animals", "value": "one animal died"}, {"measurement": "Body weight increase compared with before administration", "setting": "[6]; 60 mg/kg", "value": 2.41, "unit": "%"}, {"measurement": "Body weight increase compared with before administration", "setting": "[6]; 80 mg/kg", "value": 1.950, "unit": "%"}]}, {"smiles": "CCc1c2c(nc3ccc(O)cc13)-c1cc3c(c(=O)n1C2)COC(=O)[C@]3(O)CC", "note": "[SN-38, 7-ethyl-10-hydroxycamptothecin]", "values": [{"measurement": "Efficacy on some tumor cells relative to CPT-11", "setting": "tumor cells", "value": "100-1000 times"}]}]}
